In the NIST ThermoML archive (doi:10.1021/je5010214):

Details: Liquid, Vibrating tube method

CCCCO [butan-1-ol]
Details | mass density [kg/m3]
283.15 K, 267.6 kPa | 817.937
283.15 K, 550.8 kPa | 818.14
283.15 K, 878.6 kPa | 818.388
283.15 K, 991.3 kPa | 818.415
283.15 K, 2020.2 kPa | 819.134
283.15 K, 2914.8 kPa | 819.722
283.15 K, 4946.5 kPa | 821.145
283.15 K, 7034.8 kPa | 822.538
283.15 K, 9021.6 kPa | 823.807
283.15 K, 9991.9 kPa | 824.485
283.15 K, 11959 kPa | 825.705
283.15 K, 15011 kPa | 827.609
283.15 K, 18047 kPa | 829.455
283.15 K, 20045 kPa | 830.642
283.15 K, 22057 kPa | 831.928
283.15 K, 25044 kPa | 833.615
283.15 K, 28046 kPa | 835.368
283.15 K, 30052 kPa | 836.501
283.15 K, 32970 kPa | 838.092
283.15 K, 32971 kPa | 838.117
283.15 K, 34017 kPa | 838.557
283.15 K, 34960 kPa | 839.141
283.15 K, 37943 kPa | 840.737
283.15 K, 40004 kPa | 841.811
283.15 K, 42058 kPa | 842.896
283.15 K, 44940 kPa | 844.325
283.15 K, 48022 kPa | 845.954
283.15 K, 49996 kPa | 846.902
283.15 K, 51982 kPa | 847.942
283.15 K, 54965 kPa | 849.358
283.15 K, 57949 kPa | 850.826
283.15 K, 59996 kPa | 851.847
283.15 K, 62025 kPa | 852.74
283.15 K, 64998 kPa | 854.215
283.16 K, 101.2 kPa | 817.825
283.16 K, 65971 kPa | 854.69
288.15 K, 78.5 kPa | 813.612
288.15 K, 391.3 kPa | 813.84
288.15 K, 554.4 kPa | 813.953
288.15 K, 882.7 kPa | 814.204
288.15 K, 989.1 kPa | 814.282
288.15 K, 2057.5 kPa | 815.033
288.15 K, 2917.8 kPa | 815.651
288.15 K, 5041.4 kPa | 817.16
288.15 K, 7088.8 kPa | 818.541
288.15 K, 9018.6 kPa | 819.847
288.15 K, 10040 kPa | 820.583
288.15 K, 12072 kPa | 821.91
288.15 K, 15001 kPa | 823.877
288.15 K, 17968 kPa | 825.72
288.15 K, 20068 kPa | 826.976
288.15 K, 20693 kPa | 827.38
288.15 K, 22020 kPa | 828.211
288.15 K, 25002 kPa | 829.984
288.15 K, 28026 kPa | 831.832
288.15 K, 30035 kPa | 832.896
288.15 K, 32084 kPa | 834.074
288.15 K, 33050 kPa | 834.714
288.15 K, 34036 kPa | 835.152
288.15 K, 35077 kPa | 835.674
288.15 K, 37993 kPa | 837.311
288.15 K, 40041 kPa | 838.449
288.15 K, 42023 kPa | 839.459
288.15 K, 44979 kPa | 841.064
288.15 K, 48045 kPa | 842.655
288.15 K, 50068 kPa | 843.734
288.15 K, 52032 kPa | 844.696
288.15 K, 55077 kPa | 846.251
288.15 K, 58004 kPa | 847.666
288.15 K, 59988 kPa | 848.618
288.15 K, 61974 kPa | 849.542
288.15 K, 64942 kPa | 850.93
288.15 K, 66025 kPa | 851.488
293.15 K, 91.1 kPa | 810.528
293.15 K, 825.1 kPa | 811.053
293.15 K, 1971.7 kPa | 811.916
293.15 K, 3060.6 kPa | 812.72
293.15 K, 5011 kPa | 814.074
293.15 K, 9042.1 kPa | 816.992
293.15 K, 10036 kPa | 817.626
293.15 K, 11947 kPa | 818.963
293.15 K, 14941 kPa | 820.924
293.15 K, 21987 kPa | 825.417
293.15 K, 27986 kPa | 829.06
293.15 K, 28066 kPa | 829.163
293.15 K, 33151 kPa | 832.036
293.15 K, 34099 kPa | 832.526
293.15 K, 35000 kPa | 833.078
293.15 K, 40081 kPa | 835.959
293.15 K, 42099 kPa | 837.008
293.15 K, 45068 kPa | 838.658
293.15 K, 54966 kPa | 843.81
293.15 K, 58072 kPa | 845.282
293.15 K, 66045 kPa | 849.224
293.16 K, 305.2 kPa | 810.686
293.16 K, 476.4 kPa | 810.81
293.16 K, 1045.2 kPa | 811.221
293.16 K, 7096.8 kPa | 815.616
293.16 K, 17889 kPa | 822.832
293.16 K, 19992 kPa | 824.147
293.16 K, 24983 kPa | 827.251
293.16 K, 29976 kPa | 830.11
293.16 K, 32232 kPa | 831.521
293.16 K, 38027 kPa | 834.783
293.16 K, 48022 kPa | 840.192
293.16 K, 50085 kPa | 841.31
293.16 K, 52032 kPa | 842.308
293.16 K, 60018 kPa | 846.257
293.16 K, 61962 kPa | 847.209
293.16 K, 64991 kPa | 848.649
298.15 K, 98.1 kPa | 806.282
298.15 K, 305.4 kPa | 806.45
298.15 K, 854.5 kPa | 806.874
298.15 K, 1980.9 kPa | 807.747
298.15 K, 3167.8 kPa | 808.637
298.15 K, 5067.6 kPa | 810.04
298.15 K, 7065.3 kPa | 811.55
298.15 K, 10107 kPa | 813.67
298.15 K, 20128 kPa | 820.445
298.15 K, 22004 kPa | 821.641
298.15 K, 25081 kPa | 823.55
298.15 K, 33113 kPa | 828.365
298.15 K, 33924 kPa | 828.845
298.15 K, 38097 kPa | 831.213
298.15 K, 40161 kPa | 832.357
298.15 K, 42029 kPa | 833.462
298.15 K, 42359 kPa | 833.614
298.15 K, 45021 kPa | 835.052
298.15 K, 48107 kPa | 836.745
298.15 K, 50068 kPa | 837.797
298.15 K, 55016 kPa | 840.375
298.15 K, 57931 kPa | 841.819
298.15 K, 59914 kPa | 842.826
298.15 K, 62036 kPa | 843.934
298.15 K, 65018 kPa | 845.412
298.16 K, 493.7 kPa | 806.599
298.16 K, 1012.6 kPa | 806.992
298.16 K, 9120.9 kPa | 813.012
298.16 K, 11970 kPa | 814.957
298.16 K, 15220 kPa | 817.234
298.16 K, 17984 kPa | 819.076
298.16 K, 28040 kPa | 825.42
298.16 K, 30089 kPa | 826.686
298.16 K, 32030 kPa | 827.814
298.16 K, 35217 kPa | 829.575
298.16 K, 52020 kPa | 838.835
298.16 K, 66118 kPa | 845.919
303.15 K, 304.1 kPa | 802.278
303.15 K, 498.9 kPa | 802.435
303.15 K, 900.6 kPa | 802.733
303.15 K, 979.1 kPa | 802.787
303.15 K, 1977.6 kPa | 803.554
303.15 K, 4930.4 kPa | 805.792
303.15 K, 11975 kPa | 810.901
303.15 K, 15044 kPa | 812.956
303.15 K, 19974 kPa | 816.207
